This passage reports IC50 and inhibition results from ChEMBL document CHEMBL1130965, “Inhibitors of farnesyl protein transferase. Synthesis and biological activity of amide and cyanoguanidine derivatives containing a 5,11-dihydro[1]benzthiepin, benzoxepin, and benzazepin [4,3-b]pyridine ring system” (Bioorg Med Chem Lett, 1998).

Experiment [1] has as its target T1, Protein farnesyltransferase (Homo sapiens, UniProt P49354+P49356). In words: In vitro FPT potency by measuring the ability to inhibit the transfer of [3H]farnesyl from farnesyl pyrophosphate to H-Ras-CLVS. The format is protein-complex assay.
Experiment [2] concerns the target T1, Protein farnesyltransferase. In words: In vitro inhibition of Ras processing in COS cells. Type of experiment: functional, cell-based.
The target is the same in experiment [3]. The experiment in a line: In vitro inhibition of Ras processing by COS cells at 20 uM. The format is functional, cell-based.
Experiment [4] shares this target. The experiment in a line: In vitro inhibition of [3H]farnesyl incorporation into H-Ras-CLVS by farnesyl transferase at 1.2 uM. Type of experiment: protein-complex assay.
Experiment [5] has the same target. In words: In vitro inhibition of [H]-farnesyl incorporation into H-Ras-CLVS by farnesyl transferase at 1.3 uM. The format is protein-complex assay.
Experiment [6] has the same target. In words: In vitro inhibition of [3H]farnesyl incorporation into H-Ras-CLVS by farnesyl transferase at 0.042 uM. The format is protein-complex assay.

SMILES strings stand for the structures.

In experiment [1], `O=C(Cc1ccncc1)N1CCN(C2c3ccc(Cl)cc3SCc3cccnc32)CC1` (stereo in doubt; 40) returned an IC50 of 1000 nM.
Still for that read-out and setting: the figure for `CN1CCC(CC(=O)N2CCC(=C3c4ccc(Cl)cc4SCc4cccnc43)CC2)CC1` is 1790 nM.
Regarding `O=C(CSc1cc[n+]([O-])cc1)N1CCC(=C2c3ccc(Cl)cc3SCc3cccnc32)CC1`, the IC50 in experiment [2] was determined as 5000 nM; in experiment [1], 620 nM.
`O=C(Cc1ccncc1)N1CCN(C2c3ccc(Cl)cc3S(=O)(=O)Cc3cccnc32)CC1` (stereo not given) gave an IC50 in experiment [1] of 1000 nM.
Still for that read-out and setting: the value for `O=C(CC1CCNCC1)N1CCN(C2c3ccc(Cl)cc3SCc3cccnc32)CC1` (stereo not given) was 1100 nM.
In experiment [3], `CN1Cc2cccnc2C(N2CCN(/C(=N/Cc3ccncc3)NC#N)CC2)c2ccc(Cl)cc21` (stereo not given) displayed an inhibition of 10%. In experiment [1], this molecule registered an IC50 of 140 nM.
The corresponding values for `CN1Cc2cccnc2C(N2CCN(C(=O)Cc3ccncc3)CC2)c2ccc(Cl)cc21` (stereo not given) are 0% and 840 nM.
With `CN1CCC(CC(=O)N2CCN(C3c4ccc(Cl)cc4SCc4cccnc43)CC2)CC1` (stereo not given), the IC50 in experiment [1] is 2100 nM.
In experiment [3], `N#CN/C(=N\Cc1ccc[n+]([O-])c1)N1CCC(=C2c3ccc(Cl)cc3SCc3cccnc32)CC1` registered an inhibition of 26%. In experiment [1], this molecule returned an IC50 of 38 nM.
With `NC(=O)N1CCC(CC(=O)N2CCC(=C3c4ccc(Cl)cc4S(=O)(=O)Cc4cccnc43)CC2)CC1`, in experiment [4], the inhibition worked out at 35%.
Regarding `O=C(Cc1ccncc1)N1CCC(=C2c3ccc(Cl)cc3SCc3cccnc32)CC1`, the IC50 in experiment [2] turned out to be 4200 nM; in experiment [1], 190 nM.
In experiment [4], `O=C(CC1CCNCC1)N1CCC(=C2c3ccc(Cl)cc3S(=O)(=O)Cc3cccnc32)CC1` showed an inhibition of 28%.
In the case of `N#CN=C(NCc1ccncc1)N1CCC(=C2c3ccc(Cl)cc3SCc3cccnc32)CC1`, the IC50 amounted to 1700 nM in experiment [2] and 43 nM in experiment [1].
For `NC(=O)N1CCC(CC(=O)N2CCC(=C3c4ccc(Cl)cc4SCc4cccnc43)CC2)CC1`, the figures for the IC50 in experiment [2] and in experiment [1] were 3800 nM and 920 nM, respectively.
`O=C(Cc1cc[n+]([O-])cc1)N1CCC(=C2c3ccc(Cl)cc3SCc3cccnc32)CC1`: the IC50 worked out at 10000 nM in experiment [2] and 520 nM in experiment [1].
On to `O=C(Cc1cc[n+]([O-])cc1)N1CCC(=C2c3ccc(Cl)cc3OCc3cccnc32)CC1`, for which the inhibition in experiment [3] came to 41%. The same molecule had an IC50 in experiment [1] of 1520 nM.
Take `O=C(Cc1ccncc1)N1CCC(=C2c3ccc(Cl)cc3S(=O)(=O)Cc3cccnc32)CC1`: in experiment [1], the IC50 worked out at 560 nM.
In the case of `O=C(Cc1cc[n+]([O-])cc1)N1CCN(C2c3ccc(Cl)cc3SCc3cccnc32)CC1` (stereo not given), the results for the IC50 in experiment [2] and in experiment [1] were 10000 nM and 79 nM, respectively.
Consider `O=C(Cc1ccncc1)N1CCN(C2c3ccc(Cl)cc3SCc3cccnc32)CC1` (stereo in doubt; 36), for which the midpoint of inhibition in experiment [1], the IC50, lay at 32 nM.
Take `O=C(Cc1cc[n+]([O-])cc1)N1CCN(C2c3ccc(Cl)cc3S(=O)(=O)Cc3cccnc32)CC1` (stereo not given): the IC50 in experiment [1] was found to be 3400 nM.
On the same count and under the same terms, the figure for `N#CN/C(=N\Cc1ccc[n+]([O-])c1)N1CCN(C2c3ccc(Cl)cc3SCc3cccnc32)CC1` (stereo not given) is 140 nM.
`CN1Cc2cccnc2C(N2CCN(C(=O)CC3CCNCC3)CC2)c2ccc(Cl)cc21` (stereo not given) had an inhibition in experiment [5] of 10%.
As for `O=C(Cc1cc[n+]([O-])cc1)N1CCC(=C2c3ccc(Cl)cc3S(=O)(=O)Cc3cccnc32)CC1`, in experiment [4], the inhibition turned out to be 30%.
As for `NC(=O)N1CCC(CC(=O)N2CCN(C3c4ccc(Cl)cc4SCc4cccnc43)CC2)CC1` (stereo not given), half-maximal inhibition in experiment [1] (IC50) required 1120 nM.
Regarding `CN1Cc2cccnc2C(N2CCN(C(=O)Cc3cc[n+]([O-])cc3)CC2)c2ccc(Cl)cc21` (stereo not given), the IC50 in experiment [2] is 20000 nM; in experiment [1], 2700 nM.
Turning to `O=C(Cc1cc[n+]([O-])cc1)N1CCC(=C2c3ccc(Cl)cc3OCc3cc(Br)cnc32)CC1`, in experiment [1], the IC50 was 110 nM.
For the molecule `N#CN/C(=N\Cc1ccncc1)N1CCC(=C2c3ccc(Cl)cc3OCc3cccnc32)CC1`, the inhibition in experiment [6] was found to be 25%.
In experiment [1], `N#CN/C(=N\Cc1ccncc1)N1CCN(C2c3ccc(Cl)cc3SCc3cccnc32)CC1` (stereo not given) displayed a half-inhibitory concentration (IC50) of 61 nM.
In turn, `O=C(CC1CCNCC1)N1CCC(=C2c3ccc(Cl)cc3SCc3cccnc32)CC1` yielded an IC50 in experiment [1] of 590 nM.
